Reference: patent US6812034B2, “Fetuin-MGP-mineral complex in serum assayed to determine calcification risk” (The Regents of the University of California, priority 2000, dated 2004)

Experiments:
[1] = test system: aorta calcification in rats treated with vitamin D plus warfarin; experiment: von Kossa staining for calcification in rats treated with vitamin D plus warfarin; type: in vivo, rat; conditions: 84 h; for Histology Score Observer #1 x ± S.D. / Histology Score Observer #2 x ± S.D.: score 0-5
Method: (§1) For measurement of mineral accumulation in arteries, each tissue was removed within 30 minutes of death and immediately frozen. Tissues were subsequently washed extensively with buffer and extracted with 1 ml of 10% formic acid for 24 h at room temperature, as described. Calcium levels in serum were determined colorimetrically using cresolphthalein complexone (Sigma) and phosphate levels in serum and in acid tissue extracts were determined calorimetrically as described (Zhu et al. (1994) Cardiology, 85: 370-377). Tissue sectioning and staining were carried out by Biomedical Testing Services, Inc., (San Diego, Calif.).
Male Sprague Dawley rats were fed ad libitum with rodent diet 5001 (Purina Mills Inc., St. Louis, Mo.), a diet that is 0.67% phosphorus and 0.95% calcium by weight. This diet contains 500 μg per kg of phylloquinone and has no added menadione. In all experiments, animals were killed by exsanguination while under metofane anesthetic, and selected tissues were removed immediately and fixed in 10% buffered formalin or frozen at −20° C. for later studies. All animal experiments were approved by the UCSD animal subjects committee.

[2] = serum levels of calcium and phosphate in rats treated with vitamin D plus warfarin; type: in vivo, rat
Method: as §1, with “Calif.). […]” for “Calif.).”

[3] = test system: warfarin-induced artery calcification; experiment: artery calcification in rats treated with warfarin for 2 or 4 weeks; type: in vivo, rat; conditions: 6.25 mg P/kg/day plus warfarin, both carotid arteries
Method: as §1, with “Tissues” for “For measurement of mineral accumulation in arteries, each tissue was removed within 30 minutes of death and immediately frozen. Tissues”, “Calif.). The effect of bisphosphonates on artery calcification was also examined in rats treated with warfarin alone using procedures which have been described elsewhere (Price et al. (1998) Arterioscler. Thromb. Vasc. Biol. 18: 1400-1407).” for “Calif.).”

[4] = weight, tibia length and serum calcium and phosphate in warfarin-treated rats; type: in vivo, rat
Text: This procedure induces artery calcification within 2 weeks without the presence of hypercalcemia.

[5] = centrifugation of serum at 16,000 x g; type: in vivo, rat
Method: The effect of centrifugation on the serum mineral complex was investigated in serum samples obtained 6 h after administration of etidronate at doses of 8 mg/100 g and 32 mg/100 g body weight. At the lower dose, no significant amount of calcium, phosphate, or MGP was sedimented after centrifugation for 30 min at 16,000×g. At the higher dose, a well-defined translucent pellet was obtained after centrifugation for 30 min at 16,000×g. This pellet was dissolved in 1 ml of 50 mM HCl and analyzed for calcium, phosphate, and MGP.

[6] = previous study (Price et al. 1981); cited from earlier work
[7] = test system: normal bone mineralization; conditions: parenteral; cited from earlier work
[8] = 6.25 mg P/kg/day, 84 h after first vitamin D
[9] = 6.25 mg P/kg/day plus warfarin, 4 weeks
[10] = 32 mg/100 gm sc, 6 h, 1 ml pooled serum prior to centrifugation
[11] = 32 mg/100 gm sc, 6 h, 16,000 x g 30 min

CC(O)(P(=O)(O)O)P(=O)(O)O [Etidronate, (1-hydroxyethylylidene)-bisphosphonate]
Histology Score Observer #1 x ± S.D. ([1]; 0.25 mg P/kg/day sc): 3.5 ± 1.3
Histology Score Observer #2 x ± S.D. ([1]; 0.25 mg P/kg/day sc): 4.5 ± 1.0
Histology Score Observer #1 x ± S.D. ([1]; 1.25 mg P/kg/day sc): 1.8 ± 2.4
Histology Score Observer #2 x ± S.D. ([1]; 1.25 mg P/kg/day sc): 2.0 ± 2.4
Histology Score Observer #1 x ± S.D. ([1]; 6.25 mg P/kg/day sc): 0.3 ± 0.5
Histology Score Observer #2 x ± S.D. ([1]; 6.25 mg P/kg/day sc): 0.1 ± 0.3
extent of von Kossa staining in the abdominal aorta ([1]; 6.25 mg P/kg/day, highest dose tested): significantly reduced
Serum Ca ([2]; 0.25 mg P/kg/day, 84 h): 13.7 ± 1.2 mg/dL
Serum P ([2]; 0.25 mg P/kg/day, 84 h): 10.8 ± 0.5 mg/dL
Serum Ca ([2]; 1.25 mg P/kg/day, 84 h): 13.5 ± 0.7 mg/dL
Serum P ([2]; 1.25 mg P/kg/day, 84 h): 9.5 ± 0.3 mg/dL
Serum Ca [2, 8]: 15.0 ± 0.5 mg/dL
Serum P [2, 8]: 8.2 ± 0.4 mg/dL
nmol PO4 Carotid [3]: 55.2 ± 14.5 nmol
final length of the tibia ([4]; 6.25 mg P/kg/day plus warfarin 4 weeks, warfarin alone 3.80±0.04, p<0.001): 3.59±0.03 cm
Ending wt [4, 9]: 238 ± 11 gm
effect on weight gain [4, 9]: inhibits weight gain
mg Ca dl serum [4, 9]: 10.9 ± 0.8 mg/dL
mg P dl serum [4, 9]: 8.1 ± 0.6 mg/dL
sedimentation of calcium, phosphate or MGP ([5]; 8 mg/100 g, 6 h serum, 30 minutes at 16,000 x g): unable to demonstrate the sedimentation
Calcium, Initial Serum [5, 10]: 9.64 µmol
MGP, Initial Serum [5, 10]: 16,200 ng
Phosphate, Initial Serum [5, 10]: 7.49 µmol
Calcium, Dissolved Pellet [5, 11]: 3.27 µmol
Calcium, Supernatant [5, 11]: 6.88 µmol
MGP, Dissolved Pellet [5, 11]: 14,400 ng
MGP, Supernatant [5, 11]: 800 ng
Phosphate, Dissolved Pellet [5, 11]: 1.68 µmol
Phosphate, Supernatant [5, 11]: 5.84 µmol
transient elevation in serum BGP levels [6]: 3 fold
dose required to inhibit normal bone mineralization in vivo [7]: about 5 mg P/kg/day
